Reference: US6794388B2, “Succinic acid salts of 5,7,14-triazatetracyclo[10.3.1.02,11.04,9] -hexadeca-1(11),3,5,7,9-pentaene and pharmaceutical compositions thereof” (Pfizer Inc., priority 2001, dated 2004)
Where a name gives a salt, the structure may show the parent alone.

How the values were obtained:
Format in all cases: physicochemical
[1] = native pH in aqueous solution
[2] = solid state stability (light, elevated temperature, high humidity challenges); conditions: elevated temperatures
Excerpt: (§1) Although in general the acid addition salts of 5,8,14-triazatetracyclo[10.3.1.0^2,11.0^4,9]-hexadeca-2(11),3,5,7,9-pentaene are all crystalline, the majority of those salts are so hygroscopic as to render them poor candidates for pharmaceutical formulation use.

[3] = hygroscopicity (moisture gain on exposure to relative humidity in a moisture chamber)
Description: as §1
(§2) The aqueous solubility of the anhydrous succinate salt has been measured under various conditions: >10 mg/mL in pH 4 buffer; >10 mg/mL in pH 10 buffer; >10 mg/mL in 0.1 N HCl; and >10 mg/mL in 0.1 N NaOH. The solubility of the anhydrous succinate salt has also been measured in various solvents: >10 mg/mL in methanol; 0.1 mg/mL in acetonitrile and <0.01 mg/mL in hexane. The hygroscopicity of the anhydrous succinate salt has also been measured under various conditions: 0.0% moisture gain at 20% Relative Humidity; 0.3% moisture gain at 40% Relative Humidity; 0.6% moisture gain at 60% Relative Humidity; 0.9% moisture gain at 80% Relative Humidity and 1.3% moisture gain at 95% Relative Humidity.

[4] = solubility in various solvents; conditions: organic solvent or mixture
Description: as §2

aqueous solubility = test: aqueous solubility
Description: as §1, §2

native pH in aqueous solution [1]: 4.7
solid state stability [2]: excellent solid state stability
hygroscopicity, moisture gain ([3]; at 20% Relative Humidity): 0.0%
hygroscopicity, moisture gain ([3]; at 40% Relative Humidity): 0.3%
hygroscopicity, moisture gain ([3]; at 60% Relative Humidity): 0.6%
hygroscopicity, moisture gain ([3]; at 80% Relative Humidity): 0.9%
hygroscopicity ([3]; at 90% relative humidity): approximately 1.97%
hygroscopicity, moisture gain ([3]; at 95% Relative Humidity): 1.3%
hygroscopicity ([3]; exposure to 90% relative humidity in a moisture chamber): approximately 1.97 % wt/wt
solubility ([4]; in acetonitrile): 100 µg/mL
solubility ([4]; in hexane): < 10 µg/mL
solubility ([4]; in methanol): > 10000 µg/mL
solubility (aqueous solubility; aqueous buffer, in 0.1 N NaOH): > 10000 µg/mL
solubility (aqueous solubility; aqueous buffer, in pH 4 buffer): > 10000 µg/mL
solubility (aqueous solubility; aqueous buffer, in pH 10 buffer): > 10000 µg/mL
solubility (aqueous solubility; simulated gastric fluid, in 0.1 N HCl): > 10000 µg/mL
solubility (aqueous solubility; water): 442000 µg/mL
SMILES: c1cnc2cc3c(cc2n1)C1CNCC3C1 [anhydrous succinate salt, Anhydrous Succinate Salt of 5,8,14-Triazatetracyclo[10.3.1.0^2,11.0^4,9]-hexadeca-2(11),3,5,7,9-pentaene]
